IC50 data for 27 molecules are collected here from patent US9850225B2, “Compounds useful as immunomodulators” (BRISTOL-MYERS SQUIBB COMPANY, priority 2014, dated 2017).

This assay deals with PD-1/PD-L1 interaction (PD-1-Ig / PD-L1-His) (Homo sapiens (Human), UniProt Q9NZQ7). The assay can be described thus: PD-1/PD-L1 Homogenous Time-Resolved Fluorescence (HTRF) binding assay. As to conditions: PD-1/PD-L1 HTRF binding assay, read-out: Range or IC50. The procedure, abridged:
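HTRF detection used 1 nM europium-cryptate anti-Ig and 20 nM APC anti-His. Compounds first saw 10 nM PD-L1-His for 15 min, and 20 nM PD-1-Ig was then added for another 15 min. Buffer was dPBS plus 0.1% BSA and 0.05% Tween-20. All concentrations are final.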
For orientation: In TR-FRET formats the signal depends on donor and acceptor labels being close together.

Where two headings read alike, the source gives them in different places.

PD-1/PD-L1 interaction (PD-1-Ig / PD-L1-His), sequence (Q9NZQ7 other isoform, or with tags, fused parts or gaps): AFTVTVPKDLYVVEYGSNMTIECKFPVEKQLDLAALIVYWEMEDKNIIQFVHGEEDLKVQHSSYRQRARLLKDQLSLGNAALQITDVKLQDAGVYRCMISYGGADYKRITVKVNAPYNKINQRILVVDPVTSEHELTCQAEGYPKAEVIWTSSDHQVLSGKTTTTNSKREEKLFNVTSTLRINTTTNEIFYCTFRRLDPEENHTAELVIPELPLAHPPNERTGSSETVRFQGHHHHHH

As a reminder, the IC50 is the point on the concentration scale where inhibition reaches its midpoint. In the case of `Cc1c(COc2cc(OCc3cccc(C#N)c3)c(CNC(Cc3c[nH]c4ncccc34)C(=O)O)cc2Cl)cccc1-c1ccc2c(c1)OCCO2` (stereo not drawn) [Example 1185, 2-((5-chloro-2-((3-cyanobenzyl)oxy)-4-((3-(2,3-dihydrobenzo[b][1,4]dioxin-6-yl)-2-methylbenzyl)oxy)benzyl)amino)-3-(1H-pyrrolo[2,3-b]pyridin-3-yl)propanoic acid], the IC50 (value given as range class) lay in the range of 10 to 100 nM. Same read-out and setting: to `Cc1c(COc2cc(OCc3cccc(C#N)c3)c(CNC(CC(F)(F)F)C(=O)O)cc2Cl)cccc1-c1ccc2c(c1)OCCO2` (stereo not drawn) [Example 1216, 2-((5-chloro-2-((3-cyanobenzyl)oxy)-4-((3-(2,3-dihydrobenzo[b][1,4]dioxin-6-yl)-2-methylbenzyl)oxy)benzyl)amino)-4,4,4-trifluorobutanoic acid] belongs 100 to 20000 nM; to `Cc1cc(CN[C@](C)(CO)C(=O)O)c(OCc2cncc(C#N)c2)cc1OCc1cccc(-c2ccc3c(c2)OCCO3)c1C#N` [Example 1311, (R)-2-(4-(2-cyano-3-(2,3-dihydrobenzo[b][1,4]dioxin-6-yl)benzyloxy)-2-((5-cyanopyridin-3-yl)methoxy)-5-methylbenzylamino)-3-hydroxy-2-methylpropanoic acid], 0.6 to 10 nM; to `Cc1c(COc2ccc(CNC[C@@H](O)CC(=O)O)c(OCc3cccc(C#N)c3)c2)cccc1-c1ccccc1` [Example 1011, (S)-4-((2-((3-cyanobenzyl)oxy)-4-((2-methyl-[1,1′-biphenyl]-3-yl)methoxy)benzyl)amino)-3-hydroxybutanoic acid], 0.6 to 10 nM.

Turning to `CC(=O)NCCNCc1ccc(OCc2cccc(-c3ccccc3)c2C)cc1OCc1cccc(C(F)(F)F)c1` [Example 1051, N-(2-((4-((2-methyl-[1,1′-biphenyl]-3-yl)methoxy)-2-((3-(trifluoromethyl)benzyl)oxy)benzyl)amino)ethyl)acetamide], the IC50 (value given as range class) is 100 to 20000 nM. Still for that read-out and setting: to `CC(=O)NCCNCc1ccc(OCc2cccc(-c3ccccc3)c2C)cc1OCc1cccc(F)c1F` [Example 1071, N-(2-((2-((2,3-difluorobenzyl)oxy)-4-((2-methyl-[1,1′-biphenyl]-3-yl)methoxy)benzyl)amino)ethyl)acetamide] belongs 100 to 20000 nM; to `Cc1c(COc2cc(OCc3cccc(C#N)c3)c(CNC(Cc3cccc(O)c3)C(=O)O)cc2Cl)cccc1-c1ccc2c(c1)OCCO2` (stereo not drawn) [Example 1159, 2-((5-chloro-2-((3-cyanobenzyl)oxy)-4-((3-(2,3-dihydrobenzo[b][1,4]dioxin-6-yl)-2-methylbenzyl)oxy)benzyl)amino)-3-(3-hydroxyphenyl)propanoic acid], 10 to 100 nM. As for `Cc1c(COc2ccc(CN3CCCC[C@H]3C(=O)O)c(OCc3cncc(C#N)c3)c2)cccc1-c1ccccc1` [Example 1329, (S)-1-(2-((5-cyanopyridin-3-yl)methoxy)-4-((2-methyl-[1,1′-biphenyl]-3-yl)methoxy)benzyl)piperidine-2-carboxylic acid], the IC50 (value given as range class) is 0.6 to 10 nM.

Take `Cc1c(COc2cc(OCc3cccc(C#N)c3)c(CN[C@@H](CC[S+](C)[O-])C(=O)O)cc2Cl)cccc1-c1ccc2c(c1)OCCO2` (stereo partly drawn) [Example 1174, (2S)-2-((5-chloro-2-((3-cyanobenzyl)oxy)-4-((3-(2,3-dihydrobenzo[b][1,4]dioxin-6-yl)-2-methylbenzyl)oxy)benzyl)amino)-4-(methylsulfinyl)butanoic acid]: the IC50 (value given as range class) is 0.6 to 10 nM. Turning to `Cc1c(COc2ccc(CNC[C@@H](O)CC(=O)O)c(OCCCCC#N)c2)cccc1-c1ccccc1` [Example 1144, (S)-4-((2-(4-cyanobutoxy)-4-((2-methyl-[1,1′-biphenyl]-3-yl)methoxy)benzyl)amino)-3-hydroxybutanoic acid], the half-inhibitory concentration (IC50) (value given as range class) lay in the range of 0.6 to 10 nM. Take `N#Cc1cccc(COc2cc(OCc3cccc(-c4ccc5c(c4)OCCO5)c3C#N)c(Cl)cc2CN[C@H](CO)C(=O)O)c1` [Example 1242, (R)-2-((5-chloro-4-((2-cyano-3-(2,3-dihydrobenzo[b][1,4]dioxin-6-yl)benzyl)oxy)-2-((3-cyanobenzyl)oxy)benzyl)amino)-3-hydroxypropanoic acid]: the IC50 (value given as range class) lay in the range of 0.6 to 10 nM.

As for `Cc1c(COc2ccc(CN3CCCC[C@H]3C(=O)O)c(OCc3cccc(C#N)c3)c2Cl)cccc1-c1ccc2c(c1)OCCO2` [Example 1236, (S)-1-(3-chloro-2-(3-cyanobenzyloxy)-4-(3-(2,3-dihydrobenzo[b][1,4]dioxin-6-yl)-2-methylbenzyloxy)benzyl)piperidine-2-carboxylic acid], the IC50 (value given as range class) fell in the range of 100 to 20000 nM. `Cc1c(COc2cc(OCc3cccc(C#N)c3)c(CNC(CCS(C)(=O)=O)C(=O)O)cc2Cl)cccc1-c1ccc2c(c1)OCCO2` (stereo not drawn) [Example 1182, 2-((5-chloro-2-((3-cyanobenzyl)oxy)-4-((3-(2,3-dihydrobenzo[b][1,4]dioxin-6-yl)-2-methylbenzyl)oxy)benzyl)amino)-4-(methylsulfonyl)butanoic acid]: the IC50 (value given as range class) was in the range of 0.6 to 10 nM.

Consider `Cc1c(COc2cc(OCc3cncc(C#N)c3)c(CN[C@@H](Cc3cccnc3)C(=O)O)cc2Cl)cccc1-c1ccc2c(c1)OCCO2` [Example 2010, (S)-2-((5-chloro-2-((5-cyanopyridin-3-yl)methoxy)-4-((3-(2,3-dihydrobenzo[b][1,4]dioxin-6-yl)-2-methylbenzyl)oxy)benzyl)amino)-3-(pyridin-3-yl)propanoic acid], for which the IC50 (numeric value) came to 50 nM. Turning to `Cc1c(COc2ccc(CNC[C@@H](O)CC(=O)O)c(OCc3cccc(C#N)c3)c2)cccc1-c1ccc2c(c1)OCCO2` [Example 1121, (S)-4-(2-(3-cyanobenzyloxy)-4-(3-(2,3-dihydrobenzo[b][1,4]dioxin-6-yl)-2-methylbenzyloxy)benzylamino)-3-hydroxybutanoic acid], the IC50 (value given as range class) was in the range of 0.6 to 10 nM. On the same count and under the same terms, to `CC(=O)NCCNCc1ccc(OCc2cccc(-c3ccccc3)c2C)cc1OCc1cc(Cl)ccc1F` [Example 1109] belongs 100 to 20000 nM; to `Cc1c(COc2cc(OCc3cncc(Br)c3)c(CN[C@](C)(CO)C(=O)O)cc2Cl)cccc1-c1ccc2c(c1)OCCO2` [Example 1254, (R)-2-(2-((5-bromopyridin-3-yl)methoxy)-5-chloro-4-(3-(2,3-dihydrobenzo[b][1,4]dioxin-6-yl)-2-methylbenzyloxy)benzylamino)-3-hydroxy-2-methylpropanoic acid], 0.6 to 10 nM. As for `CC(=O)NCCNCc1ccc(OCc2cccc(-c3ccccc3)c2C)cc1OCc1ccc([N+](=O)[O-])cc1` [Example 1058, N-(2-((4-((2-methyl-[1,1′-biphenyl]-3-yl)methoxy)-2-((4-nitrobenzyl)oxy)benzyl)amino)ethyl)acetamide], under “value given as range class”, the concentration for half-maximal inhibition (IC50) fell in the range of 100 to 20000 nM. Same read-out and setting: for `CC(=O)NCCNCc1ccc(OCc2cccc(-c3ccccc3)c2C)cc1OCc1cccc2cccnc12` [Example 1074, N-(2-((4-((2-methyl-[1,1′-biphenyl]-3-yl)methoxy)-2-(quinolin-8-ylmethoxy)benzyl)amino)ethyl)acetamide] the value was 100 to 20000 nM; for `Cc1cc(CN[C@@](C)(CO)C(=O)O)c(OCc2cccnc2)cc1OCc1cccc(-c2ccc3c(c2)OCCO3)c1C` [Example 1280, (S)-2-((4-((3-(2,3-dihydrobenzo[b][1,4]dioxin-6-yl)-2-methylbenzyl)oxy)-5-methyl-2-(pyridin-3-ylmethoxy)benzyl)amino)-3-hydroxy-2-methylpropanoic acid], 0.6 to 10 nM; for `CC(=O)NCCNCc1cc(C)c(OCc2cccc(-c3ccc4c(c3)OCCO4)c2C)cc1OCCCCC#N` [Example 1294, N-(2-(2-(4-cyanobutoxy)-4-(3-(2,3-dihydrobenzo[b][1,4]dioxin-6-yl)-2-methylbenzyloxy)-5-methylbenzylamino)ethyl)acetamide], 10 to 100 nM. The same measure, in the same setting: for `COC(=O)c1ccc(F)c(COc2cc(OCc3cccc(-c4ccccc4)c3C)ccc2CNCCNC(C)=O)c1` [Example 1103, methyl 3-((2-(((2-acetamidoethyl)amino)methyl)-5-((2-methyl-[1,1′-biphenyl]-3-yl)methoxy)phenoxy)methyl)-4-fluorobenzoate] the value was 100 to 20000 nM; for `CC(=O)NCCNCc1ccc(OCc2cccc(-c3ccccc3)c2C)cc1OCc1cc(C(F)(F)F)cc(C(F)(F)F)c1` [Example 1061, N-(2-((2-((3,5-bis(trifluoromethyl)benzyl)oxy)-4-((2-methyl-[1,1′-biphenyl]-3-yl)methoxy)benzyl)amino)ethyl)acetamide], 100 to 20000 nM.

Regarding `CC(=O)NCCNCc1ccc(OCc2cccc(-c3ccccc3)c2C)cc1OCc1cccc(C(=O)OC(C)(C)C)c1` [Example 1105, tert-butyl 3-((2-(((2-acetamidoethyl)amino)methyl)-5-((2-methyl-[1,1′-biphenyl]-3-yl)methoxy)phenoxy)methyl)benzoate], the IC50 (value given as range class) is 100 to 20000 nM. Still for that read-out and setting: for `Cc1c(COc2cc(OCc3cncc(C#N)c3)c(CN[C@@H](Cc3ccccn3)C(=O)O)cc2Cl)cccc1-c1ccc2c(c1)OCCO2` [Example 2009, (S)-2-((5-chloro-2-((5-cyanopyridin-3-yl)methoxy)-4-((3-(2,3-dihydrobenzo[b][1,4]dioxin-6-yl)-2-methylbenzyl)oxy)benzyl)amino)-3-(pyridin-2-yl)propanoic acid] the value was 0.6 to 10 nM. Same read-out and setting: for `Cc1c(COc2ccc(CN[C@H](CO)C(=O)O)c(OCCCCC#N)c2)cccc1-c1ccccc1` [Example 1143, (R)-2-((2-(4-cyanobutoxy)-4-((2-methyl-[1,1′-biphenyl]-3-yl)methoxy)benzyl)amino)-3-hydroxypropanoic acid] the value was 0.6 to 10 nM; for `CC(=O)NCCNCc1ccc(OCc2cccc(-c3ccccc3)c2C)cc1OCc1cccc2ccccc12` [Example 1063, N-(2-((4-((2-methyl-[1,1′-biphenyl]-3-yl)methoxy)-2-(naphthalen-1-ylmethoxy)benzyl)amino)ethyl)acetamide], 100 to 20000 nM.
